How the values were obtained:
Type in all cases: biochemical
[1] = test system: Ostreococcus tauri BioDA A374D; assay: BioDA enzyme activity with DMSO or herbicide in vitro
Excerpt: (§1) A pet-24 plasmid containing a DNA sequence encoding each identified variant mutant of BIO3-BIO1 derived from Arabidopsis thaliana from example 5 above, as shown in Table 13 below and as shown in full in SEQ ID NOs: 15 to 155, codon-optimised for expression in E. coli, with an N-terminal 6×His-tag and thrombin cleavage site and under control of a T7 promoter, and was synthesised by Twist Bioscience, in a similar manner to SEQ ID NO:311. These plasmids were then expressed in E. coli BL21 (DE3) bioA with 50 μg/mL kanamycin and 25 μg/mL chloramphenicol selection. Overnight cultures grown at 37° C. were used to inoculate 8×500 mL AIM in shake flasks at a ratio of 1:100. Cultures were grown at 37° C., 200 rpm for 3.5 hours and then overnight at 20° C. Cells were harvested by centrifugation for 30 minutes at 10 000 g. Cells were stored at −80° C. until extraction. 30 g of cell pellet from was thawed in 120 mL of IMAC buffer A (20 mM HEPES pH7.5, 25 mM imidazole, 500 mM sodium chloride, 0.15 mM pyridoxal phosphate, 0.5 mM TCEP, 1× complete Protease Inhibitor Tablet (Roche)). The resuspension was passed through a cell disrupter at 18 000 PSI and centrifuged at 50 000 g for 25 minutes at 4° C. The His-tagged BIO3-BIO1 protein was purified from the extract supernatant on an AKTA avant chromatography system (Cytiva) using a HisTrap FF column and eluted in IMAC buffer B ((20 mM HEPES pH7.5, 500 mM imidazole, 500 mM sodium chloride, 0.15 mM pyridoxal phosphate, 0.5 mM TCEP) followed by SEC using a HiLoad 26/60 Superdex200 column in SEC buffer (25 mM HEPES pH7.5, 150 mM sodium chloride, 0.15 mM pyridoxal phosphate, 0.5 mM TCEP). Protein concentration was measured and calculated using the absorbance at 280 nm. Extracts were diluted 1 in 4 and 10 uL was analysed by SDS PAGE.
(§2) To measure BIO3-BIO1 mutant enzyme activity in the presence of herbicide, herbicides were incubated with 20 μL of enzyme mix (100 mM EPPS pH 8.6, 0.1 mM pyridoxal phosphate, 0.1 mg/mL BSA, 50 nM BIO3-BIO1 enzyme) for 10 minutes at 20° C. in a well of a 96-well half-area black plate, followed by the addition of 20 μL of substrate mix (final concentration of 100 mM EPPS pH 8.6, 0.1 mM pyridoxal phosphate, 0.1 mg/mL BSA, 100 μM spermidine, 20 μM KAPA, 100 mM NaCO3) and further incubation for 75 minutes at 20° C. The reaction was terminated by the addition of 50 μL of derivatisation mix (final concentration of 250 mM borate NaOH pH 9.4, 3.6 mM o-phthalaldehyde, 7 mM β-mercaptoethanol, 17% (v/v) ethanol, 3.6% (v/v) methanol). The fluorescent product produced by the reaction of DAPA with o-phthalaldehyde and 7 mM β-mercaptoethanol was measured at 470 nm after excitation at 410 nm. The percentage inhibition was calculated as the activity in the presence of one of three concentrations of each herbicide compound A to M (note that the compounds labelled as A to M are identified hereinabove in the relevant section of the description) as a percentage of the activity in DMSO (Table 12 and 13). The percentage activity versus WT was also calculated and is shown in Table 13 and 14 (NT indicates mutation not tested in table 13, note that these mutations are tested at different compound concentrations for compounds L, M and C, and the results are shown in table 14).
(§3) The activity of various wild-type BioDA and variant enzymes was also tested when treated with DMSO or herbicide in vitro.
(§4) Protein of Schizosaccharomyces japonicus BioDA (SEQ ID NO:13), Nannochloropsis gaditana BioDA (SEQ ID NO:3), Selaginella moellendorffii BioDA (SEQ ID NO:319), Quercus robur BioDA (SEQ ID NOA11), Ostreococcus tauri BioDA (SEQ ID NO:9), and the variants of Ostreococcus tauri BioDA A374D, F332A and P407A (SEQ ID Nos:321-323) was prepared using the method in Example 6. BioDA enzyme activity in the presence of herbicide or DMSO in vitro for each of the proteins was assayed according to the enzyme assay method above. The results are shown in Table 26 provided below in the “TABLES” section.

[2] = test system: Ostreococcus tauri BioDA F332A; assay: as above
Excerpt: as §1, §2, §3, §4

[3] = test system: Ostreococcus tauri BioDA P407A; assay: as above
Excerpt: as §1, §2, §3, §4

[4] = molecular target: T1, Arabidopsis thaliana BIO3-BIO1 (BioDA) mutants (Arabidopsis thaliana, UniProt B0F481, G513P); assay: BIO3-BIO1 mutant enzyme activity in the presence of herbicide, percentage inhibition (fluorometric DAPA assay); settings: read-out: percentage inhibition
T1 construct: with the predicted N-terminal mitochondrial transit peptide removed; 6xHis-tag (N); thrombin cleavage site (N); made in house; host or cells: E. coli BL21 (DE3) bioA
T1 sequence (B0F481 23-833 G513P): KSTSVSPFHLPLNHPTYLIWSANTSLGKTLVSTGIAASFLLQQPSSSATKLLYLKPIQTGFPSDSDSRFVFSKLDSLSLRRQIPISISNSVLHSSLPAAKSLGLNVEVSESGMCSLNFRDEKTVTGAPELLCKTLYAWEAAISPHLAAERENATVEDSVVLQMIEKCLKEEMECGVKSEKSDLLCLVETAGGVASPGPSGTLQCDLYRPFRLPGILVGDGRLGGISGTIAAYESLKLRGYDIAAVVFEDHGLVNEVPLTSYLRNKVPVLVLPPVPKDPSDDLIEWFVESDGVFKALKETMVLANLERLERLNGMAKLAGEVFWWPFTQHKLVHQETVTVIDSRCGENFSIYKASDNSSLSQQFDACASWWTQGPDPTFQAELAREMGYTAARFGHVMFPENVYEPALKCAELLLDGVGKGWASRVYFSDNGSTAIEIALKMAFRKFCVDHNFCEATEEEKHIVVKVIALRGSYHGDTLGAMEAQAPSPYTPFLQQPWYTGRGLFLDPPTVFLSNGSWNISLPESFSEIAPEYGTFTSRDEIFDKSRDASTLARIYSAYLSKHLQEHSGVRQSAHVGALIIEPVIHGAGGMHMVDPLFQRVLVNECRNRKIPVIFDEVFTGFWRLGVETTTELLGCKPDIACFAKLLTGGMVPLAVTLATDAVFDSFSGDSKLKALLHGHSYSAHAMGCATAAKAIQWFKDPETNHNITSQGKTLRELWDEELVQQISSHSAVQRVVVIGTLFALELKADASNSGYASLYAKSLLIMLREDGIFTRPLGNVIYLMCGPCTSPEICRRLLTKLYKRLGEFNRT
Outline: (§5)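 His-tagged Arabidopsis BIO3-BIO1 mutants, expressed in E. coli and purified by IMAC and SEC, were preincubated at 50 nM with herbicide for 10 min at 20 °C in EPPS pH 8.6 with pyridoxal phosphate. Reaction with 100 μM spermidine and 20 μM KAPA ran 75 min at 20 °C; DAPA was derivatised with o-phthalaldehyde and read at ex 410/em 470 nm. […].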

[5] = molecular target: T2, Arabidopsis thaliana BIO3-BIO1 (BioDA) mutants (Arabidopsis thaliana, UniProt B0F481, Q516C); assay: as above; settings: read-out: percentage inhibition
T2 construct: with the predicted N-terminal mitochondrial transit peptide removed; 6xHis-tag (N); thrombin cleavage site (N); made in house; host or cells: E. coli BL21 (DE3) bioA
T2 sequence (B0F481 23-833 Q516C): as the sequence (B0F481 23-833 G513P) above, with P491G, Q494C counted along it
Outline: as §5

[6] = molecular target: T3, Arabidopsis thaliana BIO3-BIO1 (BioDA) mutants (Arabidopsis thaliana, UniProt B0F481, A609F); assay: as above; settings: read-out: percentage inhibition
T3 construct: with the predicted N-terminal mitochondrial transit peptide removed; 6xHis-tag (N); thrombin cleavage site (N); made in house; host or cells: E. coli BL21 (DE3) bioA
T3 sequence (B0F481 23-833 A609F): as the sequence (B0F481 23-833 G513P) above, with P491G, A587F counted along it
Outline: as §5

SMILES	% Inhibition relative to DMSO treatment ([1]; 31 μM)	% Inhibition relative to DMSO treatment ([1]; 500 μM)	% Inhibition relative to DMSO treatment ([2]; 31 μM)	% Inhibition relative to DMSO treatment ([2]; 500 μM)	% Inhibition relative to DMSO treatment ([3]; 31 μM)	% Inhibition relative to DMSO treatment ([3]; 500 μM)	inhibition at 1 µM [4]	inhibition at 1 µM [5]	inhibition at 1 µM [6]	inhibition at 0.2 µM [4]	inhibition at 5 µM [4]	inhibition at 0.2 µM [5]	inhibition at 5 µM [5]	inhibition at 0.2 µM [6]	inhibition at 5 µM [6]	other results
CCn1c(Cn2ccc(C(F)(F)F)n2)cc(=O)c(C(=O)O)c1-c1ccc(Cl)c(Cl)c1 [Compound L, 2-(3,4-dichlorophenyl)-1-ethyl-4-oxo-6-[[3-(trifluoromethyl)pyrazol-1-yl]methyl]pyridine-3-carboxylic acid]	98%	93%	4%	53%	58%	94%	–	–	–	–	–	–	–	–	–	inhibition at 0.01 µM [4]: 5%; inhibition at 0.075 µM [4]: 46%; inhibition at 0.5 µM [4]: 86%; inhibition at 0.01 µM [5]: 44%; inhibition at 0.075 µM [5]: 77%; inhibition at 0.5 µM [5]: 95%; inhibition at 0.01 µM [6]: 10%; inhibition at 0.075 µM [6]: 0%; inhibition at 0.5 µM [6]: 16%
CCOC(=O)c1nn(-c2ccc3c(c2)OC(F)(F)C(F)(F)O3)c2cccc(C(C)=O)c2c1=O [Compound A, ethyl 5-acetyl-4-oxo-1-(2,2,3,3-tetrafluoro-1,4-benzodioxin-6-yl)cinnoline-3-carboxylate]	–	–	–	–	–	–	63%	83%	6%	–	–	–	–	–	–	–
CCn1c(-c2ccc(Cl)c(Cl)c2)c(C(=O)O)c(=O)c2cc(F)ccc21 [Compound M, 2-(3,4-dichlorophenyl)-1-ethyl-6-fluoro-4-oxo-quinoline-3-carboxylic acid]	94%	93%	7%	46%	37%	92%	83%	88%	26%	52%	97%	64%	97%	19%	66%	–
CCn1c(C)c(-c2ccc(F)cc2F)c(=O)c(C(=O)O)c1-c1ccc(Cl)c(Cl)c1 [Compound C, 2-(3,4-dichlorophenyl)-5-(2,4-difluorophenyl)-1-ethyl-6-methyl-4-oxo-pyridine-3-carboxylic acid]	–	–	–	–	–	–	95%	95%	5%	52%	99%	74%	99%	5%	20%	–
CCn1c(C)c(-c2cc(OC(F)(F)F)ccc2Cl)c(=O)c(C(=O)O)c1-c1ccc(Cl)c(Cl)c1 [Compound D, 5-[2-chloro-5-(trifluoromethoxy)phenyl]-2-(3,4-dichlorophenyl)-1-ethyl-6-methyl-4-oxo-pyridine-3-carboxylic acid]	–	–	–	–	–	–	–	–	–	–	–	–	–	–	–	% Inhibition relative to DMSO treatment ([1]; 0.5 μM): 82%; % Inhibition relative to DMSO treatment ([1]; 5 μM): 95%; % Inhibition relative to DMSO treatment ([2]; 0.5 μM): 0%; % Inhibition relative to DMSO treatment ([2]; 5 μM): 7%; % Inhibition relative to DMSO treatment ([3]; 0.5 μM): 4%; % Inhibition relative to DMSO treatment ([3]; 5 μM): 26%
CC(O)C(N)CCCCC(=O)O.Cl (stereo not drawn) [Compound B, [5-carboxy-1-(1-hydroxyethyl)pentyl]ammonium chloride]	–	–	–	–	–	–	–	–	–	–	–	–	–	–	–	% Inhibition relative to DMSO treatment ([1]; 200 μM): 95%; % Inhibition relative to DMSO treatment ([2]; 200 μM): 66%; % Inhibition relative to DMSO treatment ([3]; 200 μM): 46%

Source: patent US20260226493A1, “HERBICIDE RESISTANT PLANTS” (SYNGENTA CROP PROTECTION AG, priority 2023, published 2026)
